# Assay results from paper PMC8201735 (BMC Pharmacology & Toxicology, 2021).
# Values joined by “and” are separate entries in the source; they are usually repeats but may differ in a detail not shown here. Identical values can stand only once.
# Tests used:
# subjects with T2DM [1] = experiment: Oral glucose tolerance test (75 g): weighted mean plasma glucose and insulin; type: in vivo, human
# Method: Oral glucose tolerance testing was performed on Day 1 and Day 13 using a 75 g oral glucose solution. Blood samples for the measurement of insulin and glucose were taken immediately before drug dosing (within 5 min of drug dosing), and at 30 min, 1, 1.5, 2, 3, 4, and 6 h following drug dosing.
# subjects with T2DM [2] = experiment: as above; type: in vivo, human; conditions: Day -1 (baseline)
compound,measurement,setting,value
"CCOC(=O)OC[C@H]1O[C@@H](Oc2nn(C(C)C)c(C)c2Cc2ccc(OC(C)C)cc2)[C@H](O)[C@@H](O)[C@@H]1O [RE, remogliflozin etabonate]","Weighted mean plasma glucose following OGTT, Mean (SD)","subjects with T2DM [1]; Day 1 (baseline), RE 500 mg + Metformin",13 mmol/L and 13.03 (1.929) mmol/L
same,"Weighted mean plasma glucose following OGTT, Mean (SD)","subjects with T2DM [1]; Day 1 (baseline), RE 750 mg + Metformin",11 mmol/L and 11.49 (3.536) mmol/L
same,"Weighted mean plasma glucose following OGTT, Mean (SD)","subjects with T2DM [1]; Day 13, RE 500 mg + Metformin",9 mmol/L and 9.45 (1.502) mmol/L
same,"Weighted mean plasma insulin following OGTT, Mean (SD)","subjects with T2DM [1]; Day 13, RE 500 mg + Metformin",142.15 (67.626) pmol/L
same,"Weighted mean plasma glucose following OGTT, Mean (SD)","subjects with T2DM [1]; Day 13, RE 750 mg + Metformin",8 mmol/L and 8.84 (1.656) mmol/L
same,"Weighted mean plasma insulin following OGTT, Mean (SD)","subjects with T2DM [1]; Day 13, RE 750 mg + Metformin",171.57 (74.178) pmol/L
same,"Weighted mean plasma glucose, change from baseline, Mean (SD)",subjects with T2DM [1]; RE 500 mg + Metformin,−3.50 (2.012) mmol/L
same,"Weighted mean plasma insulin, change from baseline, Mean (SD)",subjects with T2DM [1]; RE 500 mg + Metformin,−44.80 (52.746) pmol/L
same,"Weighted mean plasma glucose, change from baseline, Mean (SD)",subjects with T2DM [1]; RE 750 mg + Metformin,−2.77 (2.262) mmol/L
same,"Weighted mean plasma insulin, change from baseline, Mean (SD)",subjects with T2DM [1]; RE 750 mg + Metformin,−18.95 (47.360) pmol/L
same,"Weighted mean plasma insulin following OGTT, Mean (SD)",subjects with T2DM [2]; RE 500 mg + Metformin,190.96 (100.420) pmol/L
same,"Weighted mean plasma insulin following OGTT, Mean (SD)",subjects with T2DM [2]; RE 750 mg + Metformin,191.52 (83.045) pmol/L
